According to US20040014813A1, “Anthelminthic agents for the prevention of parasitic infections in humans and animals II” (priority 2000, published 2004):

What was measured:
[1] = test system: Schistosoma mansoni cercariae; test: Activity against Schistosoma mansoni cercariae (survival/mobility under stereomagnifier); format: cell-based; design: key: no effect during the entire test period of 120 minutes; 1: weak effect (the cercariae have a strongly reduced mobility); 2: good effect (the cercariae are only slightly mobile and bent); 3: full effect (the cercariae are completely immobile); settings: 500 >1/l final concentration of the active compounds; 5 μl active compound in 25 μl PEG300 + 9 ml aquarium water + 1 ml cercariae suspension; test period 120 minutes
Description: Activity Against Schistosoma Mansoni Cercariae
[500 >1/l Final Concentration of the Active Compounds]
Snails (Biomphalaria glabrata) were infected by incubating each of them with 8 miracidia in 10 ml of water overnight. About 6 to 9 weeks after the infection, cercariae were obtained by irradiating the snails, which had been kept in darkness, with light, followed by collection of the swarming cercariae within 2 hours.
Such an amount of cercariae-containing water (1 or 2 ml, see below) was added to the test batches that each batch contained about 100 to 150 cercariae.
5 μl of active compound were mixed thoroughly with 25 μl of PEG300. 9 ml of aquarium water was then added, and the batch was shaken vigorously. After (delayed) addition of 1 ml of cercariae suspension, survival of the cercariae was in each case observed immediately using a stereomagnifier.

[2] = test system: cercariae of Schistosoma mansoni; settings: literature (Fripp and Armstrong 1973; Salafsky et al. 1998); cited from earlier work
[3] = EU Directive on Dangerous Substances; Registry of Toxic Effects of Chemical Substances; cited from earlier work
[4] = test system: cercariae of Schistosoma mansoni; settings: literature (Bruce et al. 1992), monkeys, topical; cited from earlier work

With `CC(C)(C)C(=O)N1CCCCC1CCO` (stereo not drawn) the Assessment [1] was 3.

With `CCCCC(=O)N1CCCCC1CCO` (stereo not drawn) the Assessment [1] was 2.

`CCCCC(=O)N1CCCCC1CCOC` (stereo not drawn) gave an Assessment [1] of 2.

`CCN(CC)C(=O)CC1CCCCC1` gave an Assessment [1] of 3.

For `CCN(CC)C(=O)c1cccc(C)c1` [N,N-Diethyl-m-toluamide (DEET), N,N-Diethyl-m-toluamide], the “effect on cercariae of Schistosoma mansoni” value [2] is given as “acts against cercariae”.

For `O=C(Nc1ccc([N+](=O)[O-])cc1Cl)c1cc(Cl)ccc1O` [Niclosamide], the toxicity [3] is given as “may possibly cause inheritable genetic damage” and the “action against the penetration of cercariae” value [4] is given as “acts against the penetration of cercariae”.

In the case of `Oc1c(Cl)cc(Cl)c(Cl)c1Cc1c(O)c(Cl)cc(Cl)c1Cl` [hexachlorophene], the “effect on cercariae of Schistosoma mansoni” value [2] is given as “lethal effect” and the toxicity [3] is given as “toxic on contact with the skin and when swallowed”.
